Ends that are not written are not given here.
Experiments:
human term placenta [1] = assay: Effect of dexamethasone and GnRH on prostanoid release from perifused human term placental explants; type: cell-based
Method: Medium 199 (x2) with Earles' Modified Salts, bicarbonate and L-glutamine without phenol red was purchased from Gibco (Chagrin Falls, Ohio). Penicillin, streptomycin, bovine serum albumin and Indomethacin were obtained from Sigma Chemicals (St. Louis, Mo.). Placental perifusion was performed essentially as described in Example 3.
Samples were stored at −20° C. until assayed for PGE, PGF, PGFM, Tx B2 or 6-keto-PGF1α. Recovery and stability of these prostanoids in this perifusion system and during storage were assessed by spiking the medium with prostanoids and perifusing it through empty chambers and collecting samples as described above. In addition, samples were frozen and thawed repeatedly and re-assayed. Prostanoid recovery and stability were nearly 100%. Thus, no data correction for procedural losses was done. Radioimmunoassays were performed as described in Example 1.
The perifusion system described at Examples 2 and 3 was used in the present study. […] It took one hour for the input medium to pass through the perifusion tubing and chamber and to be collected in the sample tube. Four replicated chambers were perifused with each of the three experimental media, while, in another four replicated chambers, the perifusion was continued with the control Medium 199.
Hormonal values for a given chamber were normalized to the fifth-hour prostanoid release for that chamber, expressed as a percent release over the fifth-hour release. […] Thus, the release of each chamber was related to functional competence at the time of treatment rather than to its mass.
The mean release for replicate chambers from a given placenta for each particular hormone in the presence of GnRH, dexamethasone, or GnRH and dexamethasone at each point was calculated. Similar calculations were done for the control chambers. The mean data for each treatment for the three different placentas were subjected to statistical analyses. Thus, the response for each placenta was weighed equally. Two-way analysis of variance was used to determine if there was significant main effect or interaction.
In addition, the cumulative release for each hormone from each placenta for each treatment was calculated. One-way analysis of variance was used to test for statistically significant effects of treatment. The points of significant variation were determined using Student-Newman-Keuls' test.

human term placenta [2] = assay: Effect of enzyme inhibitors on prostanoid release from perifused human term placental explants (RIA); type: cell-based; details: indomethacin 50 μg/ml
Method: Radioimmunoassays were performed in a fashion similar to what has been previously described (Siler-Khodr et al., 1986, Biol. Reprod., 35:312) which is specifically incorporated herein for this purpose, with specific exception as noted below. A perifusion model (described in Examples 2 and 3) was employed to determine placental cell response. Media collected from the perifusion samples prepared from placental tissues were assayed. […] All the samples from a given perifusion (placenta) were determined in the same assay. At the beginning of the fifth hour of the perifusion, Medium 199 in the experimental chambers was changed to Medium 199 containing quinacrine (10 μM), EDTA (1 mM), NDGA (10 μM) or indomethacin (50 μg/ml). Four replicated chambers were perifused with control medium and each of the experimental media. This experimental design was repeated in three different perifusions using placental tissues from three different patients according to the procedure described in Example 3. […] Term placentas were obtained and placed on ice immediately after vaginal delivery from patients having spontaneous labor and delivery without any known obstetrical or medical complications. Tissues were obtained in accordance with a protocol approved by the Institutional Review Board. Within 30 minutes, the placental tissues were dissected of decidua, chorionic plates and large fetal vessels on ice. The placental tissues were cut into small fragments (approximately 25 pieces having a total weight of approximately 1 g), rinsed free of blood by repeated washing with ice cold normal saline until clear in color, and the tissue fragments placed in a 3-ml tissue chamber, placed in a 37° C. water bath. […] This medium is hereafter referred to as Medium 199. […] Perifusion was performed for two hours prior to initiation of sample collection. In this fashion, all tissues were thoroughly washed and equilibrated. Samples were collected hourly, beginning at the start of the third hour, into 12×75 mm glass tubes containing 0.1 ml indomethacin and 1100 μg/ml dimethyl sulfoxide [DMSO]. It took approximately one hour for the input medium to pass through the perifusion tubing and chamber and to be collected in the sample tube, thus the dead volume of the system was approximately 1 ml. Collection of the effluent of the 20 chambers was done simultaneously, using an ISCO fraction collector Retriever III adapted with a 20-tube rack and manifold. The prostanoid release for a given chamber was expressed as the increase over the fourth-hour prostanoid release for that chamber. Because there may be differences in the amounts of blood vessels and connective tissue among placental explants, the release expressed per unit weight results in high variance between chambers. […] Thus, the release of each chamber was related to its functional competence at the time of treatment rather than its mass. The mean release for replicate chambers from a given placenta for each particular prostanoid in the presence of arachidonic acid or each of the various enzyme inhibitors was calculated and then the mean data for each of the three different placentas was averaged at each time point. Thus, each placenta was weighted equally in the statistical analyses. Two-way analysis of variance of the average response for each prostanoid for each dose of arachidonic acid or each enzyme inhibitor studied, at each time point, was performed. The normalized data were tested for homogeneity using Cohrna's Q test, and no significant deviation was found. Thus, for each prostanoid and each treatment, where there was a significant main effect or interaction, Dunnett's comparison test was applied to determine the point(s) of significant difference as compared to the control. P<0.05 was considered to be statistically significant.

[3] = on the order of at least; cited from earlier work
[4] = seven hours of perifusion, dexamethasone 10^−8 M, GnRH 10^−7 M, compared to control

C[C@@H]1C[C@H]2[C@@H]3CCC4=CC(=O)C=C[C@]4(C)[C@@]3(F)[C@@H](O)C[C@]2(C)[C@@]1(O)C(=O)CO [dexamethasone]
release as percent of control (human term placenta [1]; dexamethasone 10^−8 M, seventh hour of incubation): 68 % of its control release | cumulative release of TxB2 (human term placenta [1]; seven hours of perifusion, dexamethasone 10^−8 M, GnRH 10^−7 M): 62%±6% | cumulative release of 6-keto-PGF1α (human term placenta [1]; [4]): 73%±7% | cumulative release of PGE (human term placenta [1]; [4]): 66%±4% | cumulative release of PGF (human term placenta [1]; [4]): 71%±4%

COc1ccc2c(c1)c(CC(=O)O)c(C)n2C(=O)c1ccc(Cl)cc1 [indomethacin]
PGFM release (human term placenta [2]; after seven hours of perifusion): 51.8 % of the release from the control | PGFM release, effect (human term placenta [2]; after three hours of exposure): not inhibited | 6-keto-PGF1α release (human term placenta [2]; continued perifusion): 26.3 % of the control | PGE release (human term placenta [2]; continued perifusion): 24.0 % of the control | PGF release (human term placenta [2]; continued perifusion): 9.6 % of the control | TxB2 release (human term placenta [2]; continued perifusion): 30.5 % of the control | 6-keto-PGF1α release (human term placenta [2]; three hours post-exposure): 41.3 % of control | PGE release (human term placenta [2]; three hours post-exposure): 33.5 % of control | PGF release (human term placenta [2]; three hours post-exposure): 22.1 % of control | TxB2 release (human term placenta [2]; three hours post-exposure): 42.3 % of control | molar concentration necessary to produce pharmacological affects [3]: at least 10^−3 molar (M)

GnRH: gonadotropin-releasing hormone (QHWSYGLRPG; ends and bridges not checked; UniProt P01148 24-33, looked up)
effect on TxB2 release (human term placenta [1]; GnRH 10^−7 M, within the first hour, continued throughout perifusion): inhibition

Source: patent US6461613B2, “Methods and compositions for the selective regulation of chorionic prostanoids” (priority 1993, dated 2002)
